PMC12686126, “LL‐37 Inhibits TMPRSS2‐Mediated S2' Site Cleavage and SARS‐CoV‐2 Infection but Not Omicron Variants” (Cell Proliferation, 2025)

Experiments:
[1] = tested on: S2 subunit of Omicron variants; assay type: binding, SARS‐CoV‐2 Omicron variants
[2] = tested on: S2 subunit of BA.2, BA.2.75, BA.4, BA.5, BQ.1, XBB, XBB.1.5, XBB.1.16, CH.1.1, XBB.1.9, XBB.2.3 and EG.5.1; assay type: binding, SARS‐CoV‐2 Omicron variants

LLGDFFRKSKEKIGKEFKRIVQRIKDFLRNLVPRTES [LL‐37]
S2 subunit bound to plasma membrane with facilitation by LL‐37 [1]: S2 subunit of SARS‐CoV‐2 rather than Omicron variants obviously bound
binding of S2 subunit to immobilised LL‐37 [2]: much lower binding
